Read-outs that look alike come from different tables or passages of the source.
How the values were obtained:
Assay type in all cases: cell-based
[1] = system: RANTES induced Ca flux in U87.CCR5 cells; test: Inhibition of RANTES induced Ca flux in U87.CCR5 cells (FLIPR); conditions: read-out: inhibited RANTES induced Ca flux; for inhibition at 20 µg/mL: U-87-CCR5, at 20 μg/mL; for inhibition at 20 µM: U-87-CCR5, at 20 μM
Protocol: (§1) Loading dye: Fluo-3, AM (Molecular Probes F-1241) is dissolved in anhydrous DMSO and stored frozen in aliquots. To increase the solubility of the dye in the loading medium, 10% (w/v) pluronic acid (Molecular Probes F-127) is added to the Fluo-3 stock solution immediately before use.
(§2) HBSS+20 mM Hepes buffer+0.2% BSA, pH 7.4. HBSS 10× [(w/o phenol red and sodium bicarbonate (Gibco 14 065-049)]; Hepes buffer 1M (Gibco 15 630-056), BSA (Sigma A3675). The flux buffer is vacuum-filtered and stored refrigerated for a maximum of 5 days. Before use in the experiment, the buffer is warmed at 37° C. in a waterbath.
(§3) The test compounds were diluted in flux buffer and added to 4 wells of a black microplate (4 parallel measurements per compound).
(§4) The chemokines are diluted in flux buffer to concentrations that are 4-fold higher than the desired concentrations required for stimulation of the cells (i.e. 2.5 nM for SDF-1α and 0.6 nM for RANTES). The chemokines were added to untreated 96-well Sero well compound plates (International Medical, Sterilin code 611F96). In the negative control well's (baseline monitoring), flux buffer is added instead of chemokine. As a positive control to check for dye loading efficiency, 20 μM digitonin (final concentration) was also included. The agonist plate was incubated in the FLIPR (37° C.) for 15-30 min.
(§5) The FLIPR settings (camera exposure time and laser power) are adjusted to obtain initial fluorescence values between 8,000 and 10,000 units. After monitoring a 20 second-baseline, the agonist (chemokine) (50 μL) is added by automatic pipettor with black pipette tips. Fluorescence is measured simultaneously in all wells of the microplate every 2 seconds (first 2 min) and thereafter every 6 seconds (additional 2 min). The average ca-flux measured in each set of 4 identical wells (one test compound) was calculated by the FLIPR software.
U87.CCR5 cells were seeded into the black microplates (Costar 3603) on the day before the experiment. The culture medium was removed from the cells and 100 μL of loading medium (DMEM+10% FBS+4 μM Fluo-3, AM) was added to each well and the plate was incubate at 37° C. for 45 min. The loading medium was then removed an the cells were washed twice with flux buffer using the CELL WASH microplate washer (Labsystems) followed by incubation in flux buffer for 10 min. at room temperature (the washing procedure was repeated twice). Finally, the wash buffer was removed from the microplate wells and 150 μL of the test compound, diluted in flux buffer to the desired concentration. The microplate was then incubated in the FLIPR drawer for 10 min. prior to testing. Measurements were performed as described above.
The compounds of the current invention were tested for inhibition of RANTES induced Ca flux in U87.CCR5 cells.

HIV-1 NL4.3 or IIIB = test: Inhibition of HIV-1 (NL4.3 or IIIB) replication in MT-4 cells (MTT); conditions: Human immunodeficiency virus 1, IIIB
Protocol: Compounds were tested for their ability to inhibit HIV-1 replication in MT-4 cells or PBMC's (peripheral blood mononucleocytes) using published procedures (for example, see: Labrosse et al. J. Virol. 1998, 6381-6388; Simmons et al. J. Virol. 1998, 8453-8457; Donzella et al. Nature Medicine 1998, 72-77; Schols et al. J. Exp. Med. 1997, 1383-1388; De Clercq et al. Antiviral Res. 1997, 147-156; and Bridger et al. U.S. patent application Ser. No. 09/111,895). In addition to the above references, experimental methods for performing anti-viral assays can also be found in: Bridger et al. J. Med. Chem. 1995, 38, 366-378; Bridger et al. J. Med. Chem. 1996, 39, 109-119; Bridger et al. U.S. Pat. No. 5,698,546; Bridger et al. U.S. Pat. No. 5,583,131; Bridger et al. U.S. Pat. No. 5,817,807; De Clercq et al. Antimicrob. Agents and Chemother. 1994, 38, 668-674.
1. The HIV-1 strains NL4.3 and IIIB are T-tropic strains that exclusively use CXCR4 as the co-receptor for entry into cells. MT-4 Cells express CXCR4 but not CCR5.
Inhibition of HIV-1 NL4.3 (or IIIB) replication assays were performed as previously described (Bridger et al. J. Med. Chem. 1999, 42, 3971-3981; De Clercq et al. Proc. Natl. Acad. Sci, 1992, 89, 5286-5290; De Clercq et al. Antimicrob. Agents Chemother. 1994, 38, 668-674; Bridger et al. J. Med. Chem. 1995, 38, 366-378). Anti-HIV activity and cytotoxicity measurements were carried out in parallel. They were based on the viability of MT-4 cells that had been infected with HIV in the presence of various concentrations of the test compounds. After the MT-4 cells were allowed to proliferate for 5 days, the number of viable cells was quantified by a tetrazolium-based calorimetric 3-(4,5-dimethylthiazol-2-yl)-2,5-diphenyltetrazolium bromide (MTT) procedure in 96-well microtrays. In all of these assays, viral input (viral multiplicity of infection, MOI) was 0.01, or 100 times the 50% cell culture infective dose (CCID50). The EC50 was defined as the concentration required to protect 50% of the virus-infected cells against viral cytopathicity.

[2] = system: SDF-1α induced Ca flux in SUP-T1 cells; test: Inhibition of SDF-1α induced Ca flux in SUP-T1 cells (FLIPR); conditions: Homo sapiens, read-out: inhibited SDF-1α induced Ca flux; for inhibition at 20 µg/mL: at 20 μg/mL
Protocol: as §1, §2, §3, §4
SUP-T1 cells were centrifuged at room temperature (RT) and re-suspended in loading medium (RPMI-1640 containing 2% FBS and 4 μM Fluo-3, AM). The cells were incubate at room temperature for 45 min. then washed twice in flux buffer then incubated in flux buffer at room temperature for 10 min. The cells were centrifuged and re-suspended in flux buffer at a density of 3×10^6 cells per mL. […] The microplate is then gently centrifuged at room temperature. Homogeneous spreading of the cells on the bottom of the microplate wells was then confirmed with a microscope and the microplate was incubated in the FLIPR (37° C.) for 10 min. prior to testing.
as §5
The compounds of the current invention were tested for inhibition of SDF-1α induced Ca flux in SUP-T1 cells using the method described above.

[3] = MT4, read-out: EC50, inhibition of HIV-1 NL4.3 or IIIB replication

| EC50 (HIV-1 NL4.3 or IIIB; [3]) | Compound | inhibition at 20 µg/mL [2] | also measured |
| --- | --- | --- | --- |
| < 20 mg/L | c1ccc(CNCc2ccc(CNc3cccc4cccnc34)cc2)nc1 [Example 6, N-(2-pyridinylmethyl)-N′-(8-quinolinyl)-1,4-benzenedimethanamine] |  | inhibition at 20 µg/mL [1]: > 20% |
| < 20 mg/L | c1ccc(CNCc2ccc(CN(Cc3nccs3)C3CCCc4cccnc43)cc2)nc1 (stereo not shown) [Example 28, N-(2-pyridinylmethyl)-N′-[2-thiazolylmethyl]-N′-(5,6,7,8-tetrahydro-8-quinolinyl)-1,4-benzenedimethanamine] | > 20% |  |
| < 20 mg/L | COc1ccc2c(c1)CC(NCc1ccc(CNCc3ccccn3)cc1)CC2 (stereo not shown) [Example 35, N-(2-pyridinylmethyl)-N′-(7-methoxy-1,2,3,4-tetrahydro-2-naphthalenyl)-1,4-benzenedimethanamine] | > 20% |  |
| < 20 mg/L | Oc1cccc2c1CC(NCc1ccc(CNCc3ccccn3)cc1)CC2 (stereo not shown) [Example 41, N-(2-pyridinylmethyl)-N′-(8-hydroxy-1,2,3,4-tetrahydro-2-naphthalenyl)-1,4-benzenedimethanamine] | > 20% |  |
| < 20 mg/L | c1ccc(CNCc2ccc(CNC3CCc4cccnc4C3)cc2)nc1 (stereo not shown) [Example 45, N-(2-pyridinylmethyl)-N′-(5,6,7,8-tetrahydro-7-quinolinyl)-1,4-benzenedimethanamine] | > 20% |  |
| < 20 mg/L | CC(C)CNCCN(Cc1ccc(CNCc2ccccn2)cc1)C1CCCc2cccnc21 (stereo not shown) [Example 48, N-(2-pyridinylmethyl)-N′-[2-(isobutylamino)ethyl]-N′-(5,6,7,8-tetrahydro-8-quinolinyl)-1,4-benzenedimethanamine] | > 20% |  |
| < 20 mg/L | N=C(N)NCCN(Cc1ccc(CNCc2ccccn2)cc1)C1CCCc2cccnc21 (stereo not shown) [Example 51, N-(2-pyridinylmethyl)-N′-(2-guanidinoethyl)-N′-(5,6,7,8-tetrahydro-8-quinolinyl)-1,4-benzenedimethanamine] | > 20% |  |
| < 20 mg/L | c1ccc(CNCc2ccc(CN(Cc3ccccn3)C3CCCc4cccnc43)cc2)nc1 (stereo not shown) [Example 84, N,N′-bis(2-pyridinylmethyl)-N′-(5,6,7,8-tetrahydro-8-quinolinyl)-1,4-benzenedimethanamine] | > 20% |  |
| < 20 mg/L | c1ccc(CNCc2ccc(CN(Cc3ccccn3)C3CCCCc4cccnc43)cc2)nc1 (stereo not shown) [Example 85, N,N′-bis(2-pyridinylmethyl)-N′-(6,7,8,9-tetrahydro-5H-cyclohepta[b]pyridin-9-yl)-1,4-benzenedimethanamine] | > 20% |  |
| < 20 mg/L | c1ccc(CNCc2ccc(CN(Cc3ccccn3)C3CCc4cccnc43)cc2)nc1 (stereo not shown) [Example 86, N,N′-bis(2-pyridinylmethyl)-N′-(6,7-dihydro-5H-cyclopenta[b]pyridin-7-yl)-1,4-benzenedimethanamine] | > 20% |  |
| < 20 mg/L | c1ccc(CNCc2ccc(CN(Cc3ccccn3)CC3CCc4cccnc43)cc2)nc1 (stereo not shown) [Example 89, N,N′-bis(2-pyridinylmethyl)-N′[(6,7-dihydro-5H-cyclopenta[b]pyridin-7-yl)methyl]-1,4-benzenedimethanamine] | > 20% |  |

More lines, now with the values behind:

| Compound | EC50 (HIV-1 NL4.3 or IIIB; [3]) | inhibition at 20 µg/mL [2] | also measured |
| --- | --- | --- | --- |
| N[C@@H]1CCCC[C@H]1N(Cc1ccc(CNCc2ccccn2)cc1)C1CCCc2cccnc21 (relative stereo) [Example 68, N-(2-pyridinylmethyl)-N′-(trans-2-aminocyclohexyl)-N′-(5,6,7,8-tetrahydro-8-quinolinyl)-1,4-benzenedimethanamine] | < 20 mg/L |  | inhibition at 20 µg/mL [1]: > 20% |
| c1ccc(CNCc2ccc(CN(Cc3ccc4ccccc4n3)C3CCCc4cccnc43)cc2)nc1 (stereo not shown) [Example 18, N-(2-pyridinylmethyl)-N′-(2-quinolinylmethyl)-N′-(5,6,7,8-tetrahydro-8-quinolinyl)-1,4-benzenedimethanamine] | < 20 mg/L | > 20% |  |
| c1ccc(CNCc2ccc(CN(Cc3cc[nH]n3)C3CCCc4cccnc43)cc2)nc1 (stereo not shown) [Example 25, N-(2-pyridinylmethyl)-N′-[3-pyrazolylmethyl]-N′-(5,6,7,8-tetrahydro-8-quinolinyl)-1,4-benzenedimethanamine] |  |  | inhibition at 20 µg/mL [1]: > 20% |
| O=C(NCCN(Cc1ccc(CNCc2ccccn2)cc1)C1CCCc2cccnc21)Nc1ccccc1 (stereo not shown) [Example 55, N-(2-pyridinylmethyl)-N′-[2-(phenylureido)ethyl]-N′-(5,6,7,8-tetrahydro-8-quinolinyl)-1,4-benzenedimethanamine] | < 20 mg/L | > 20% |  |
| c1ccc(CCN(Cc2cccc(CNCc3ccccn3)c2)Cc2ccccn2)cc1 [Example 109, N-[-(phenyl)ethyl]-N,N′-bis(2-pyridinylmethyl)-1,3-benzenedimethanamine] |  |  | inhibition at 20 µM [1]: > 20% |
| c1ccc(CNCc2cccc(CN(Cc3ccccn3)Cn3ccnc3)c2)nc1 [Example 118, N-[1H-imidazol-1-ylmethyl]-N,N′-bis(2-pyridinylmethyl)-1,3-benzenedimethanamine] |  |  | inhibition at 20 µM [1]: > 20% |
| Cc1nc[nH]c1CN(Cc1ccc(CNCc2ccccn2)cc1)Cc1ccccn1 [Example 166, N-[(4-methyl)-1H-imidazol-5-ylmethyl]-N,N′-bis(2-pyridinylmethyl)-1,4-benzenedimethanamine] |  |  | inhibition at 20 µM ([2]; at 20 μM): > 20%; EC50 (HIV-1 NL4.3 or IIIB; MT4, read-out: EC50, inhibition of HIV-1 NLA.3 or IIIB replication): < 20 µM |
| c1ccc(CN2CCC(N(CCc3ccccn3)Cc3cccc(CNCc4ccccn4)c3)C2)cc1 (stereo not shown) [Example 179, N-[1-(benzyl)-3-pyrrolidinyl]-N-[2-(2-pyridinyl)ethyl]-N′-(2-pyridinylmethyl)-1,3-benzenedimethanamine] |  |  | inhibition at 20 µM [1]: > 20% |

Source: patent US6750348B1, “Chemokine receptor binding heterocyclic compounds” (AnorMED, Inc., priority 1999, dated 2004)
